According to patent US6613799B1, “Liposoluble platinum (II) complex and preparation thereof” (priority 1985, dated 2003):
Where two headings read alike, the source gives them in different places. Marks after values point to notes of the source that are not given here.

Experiments:
L 1210 leukemia cells = type: in vivo
[1] = cited from earlier work
[2] = 11.6 mg/kg × 2 i.p., dispersion in lipiodol, oleic acid moiety two times stoichiometric amount, Table III
[3] = L1210-CDF1 mice, dispersion in lipiodol
[4] = 31.5 mg/kg × 2 i.p. in lipiodol, Table III
[5] = 157 mg/kg × 2 i.p. in lipiodol, Table III
[6] = 787 mg/kg, administered only one time, i.p. in lipiodol, Table III
[7] = 25 mg/kg × 2 i.p. in lipiodol, Table I
[8] = 126 mg/kg × 2 i.p. in lipiodol, Table I
[9] = 630 mg/kg × 2 i.p. in lipiodol, Table I
[10] = 57 mg/kg × 2 i.p. in lipiodol, Table III
[11] = 171 mg/kg × 2 i.p. in lipiodol, Table III
[12] = 855 mg/kg × 2 i.p. in lipiodol, Table III

SMILES: N.N.[Cl][Pt][Cl] [CDDP, Cis-dichlorodiammine platinum (II), reference compound]
- CR (mice completely cured / total mice tested) (L 1210 leukemia cells; [2]): 0/5
- T/C (mean survival time treated / control) (L 1210 leukemia cells; [2]): 182
- MST (mean survival time) (L 1210 leukemia cells; 11.6 mg/kg × 2 i.p., dispersion in lipiodol, oleic acid moiety two times stoichiometric amount, Table III control MST 8.5): 15.5
- T/C (mean survival time treated / control) (L 1210 leukemia cells; 58 mg/kg × 2 i.p., dispersion in lipiodol, oleic acid moiety two times stoichiometric amount, Table III): Toxic
- MST (mean survival time) (L 1210 leukemia cells; 58 mg/kg × 2 i.p., dispersion in lipiodol, oleic acid moiety two times stoichiometric amount, Table III control MST 8.5): 4.0
- complete recovery at rather low dose (L 1210 leukemia cells; [3]): complete recovery is not observed

SMILES: N.N.O=C([O-])C1(C(=O)[O-])CCC1.[Pt+2] [carboplatin, cis-diammine-1,1-cyclobutane-dicarboxylate platinum (II)]
- water solubility [1]: 17800 µg/mL

SMILES: NCC1(CN)CCCCC1.O=S(=O)([O-])[O-].[Pt+2] [spiroplatin, cis-1,1-di-(aminomethyl) cyclohexane platinum (II) sulfate]
- water solubility [1]: 1000 µg/mL

SMILES: CCCCCCCCCC(=O)[O][Pt]1([O]C(=O)CCCCCCCCC)[NH]C2CCCCC2[NH]1 (stereo not drawn) [DACHPt(II)-(Cap)2]
- CR (mice completely cured / total mice tested) (L 1210 leukemia cells; [4]): 0/6
- T/C (mean survival time treated / control) (L 1210 leukemia cells; [4]): 133
- MST (mean survival time) (L 1210 leukemia cells; 31.5 mg/kg × 2 i.p. in lipiodol, Table III control MST 8.5): 12.0
- CR (mice completely cured / total mice tested) (L 1210 leukemia cells; [5]): 2/6
- T/C (mean survival time treated / control) (L 1210 leukemia cells; [5]): Toxic
- CR (mice completely cured / total mice tested) (L 1210 leukemia cells; [6]): 0/6
- T/C (mean survival time treated / control) (L 1210 leukemia cells; [6]): 111
- MST (mean survival time) (L 1210 leukemia cells; 787 mg/kg, administered only one time, i.p. in lipiodol, Table III control MST 8.5): 10.0*^1

SMILES: CCCCCCCCCCCCCCCCCCCC(=O)[O][Pt][O]C(=O)CCCCCCCCCCCCCCCCCCC.NC1CCCCC1N [DACHPt(II)-(Ara)2]
- T/C (mean survival time treated / control) (L 1210 leukemia cells; 73 mg/kg × 2 i.p. in lipiodol, Table II): 211
- MST (mean survival time) (L 1210 leukemia cells; 73 mg/kg × 2 i.p. in lipiodol, Table II control MST 9.5): 20
- T/C (mean survival time treated / control) (L 1210 leukemia cells; 225 mg/kg × 2 i.p. in lipiodol, Table II): 600
- MST (mean survival time) (L 1210 leukemia cells; 225 mg/kg × 2 i.p. in lipiodol, Table II control MST 9.5): 60
- T/C (mean survival time treated / control) (L 1210 leukemia cells; 1127 mg/kg × 2 i.p. in lipiodol, Table II): Toxic
- MST (mean survival time) (L 1210 leukemia cells; 1127 mg/kg × 2 i.p. in lipiodol, Table II control MST 9.5): 7.0

SMILES: CCCCCCCCCCCCCCCC(=O)[O][Pt][O]C(=O)CCCCCCCCCCCCCCC.NC1CCCCC1N [DACHPt(II)-(Pal)2]
- T/C (mean survival time treated / control) (L 1210 leukemia cells; 40 mg/kg × 2 i.p. in lipiodol, Table I): 110
- MST (mean survival time) (L 1210 leukemia cells; 40 mg/kg × 2 i.p. in lipiodol, Table I control MST 10): 11
- T/C (mean survival time treated / control) (L 1210 leukemia cells; 198 mg/kg × 2 i.p. in lipiodol, Table I): 115
- MST (mean survival time) (L 1210 leukemia cells; 198 mg/kg × 2 i.p. in lipiodol, Table I control MST 10): 11.5
- T/C (mean survival time treated / control) (L 1210 leukemia cells; 991 mg/kg × 2 i.p. in lipiodol, Table I): 170
- MST (mean survival time) (L 1210 leukemia cells; 991 mg/kg × 2 i.p. in lipiodol, Table I control MST 10): 17
- CR (mice completely cured / total mice tested) (L 1210 leukemia cells; mouse, in vivo): 0/6

SMILES: CCCCCCCCCCCCCCCCCCCCCC(=O)[O][Pt][O]C(=O)CCCCCCCCCCCCCCCCCCCCC.NC1CCCCC1N [DACHPt(II)-(Beh)2]
- T/C (mean survival time treated / control) (L 1210 leukemia cells; 80 mg/kg × 2 i.p. in lipiodol, Table III): 212
- MST (mean survival time) (L 1210 leukemia cells; 80 mg/kg × 2 i.p. in lipiodol, Table III control MST 8.5): 18.0
- T/C (mean survival time treated / control) (L 1210 leukemia cells; 1195 mg/kg, administered only one time, i.p. in lipiodol, Table III): Toxic
- MST (mean survival time) (L 1210 leukemia cells; 1195 mg/kg, administered only one time, i.p. in lipiodol, Table III control MST 8.5): 2.0*^1

SMILES: CCCCCCCCCCCCCCCCCC(=O)[O][Pt][O]C(=O)CCCCCCCCCCCCCCCCC.NC1CCCCC1N [DACHPt(II)-(Ste)2]
- T/C (mean survival time treated / control) (L 1210 leukemia cells; 71 mg/kg × 2 i.p. in lipiodol, Table III): 212
- MST (mean survival time) (L 1210 leukemia cells; 71 mg/kg × 2 i.p. in lipiodol, Table III control MST 8.5): 18.0
- T/C (mean survival time treated / control) (L 1210 leukemia cells; 1060 mg/kg, administered only one time, i.p. in lipiodol, Table III): Toxic
- MST (mean survival time) (L 1210 leukemia cells; 1060 mg/kg, administered only one time, i.p. in lipiodol, Table III control MST 8.5): 7.0*^1
- CR (mice completely cured / total mice tested) (L 1210 leukemia cells; mouse, in vivo): 2/5

SMILES: CCCCCCCC/C=C\CCCCCCCC(=O)[O-].CCCCCCCC/C=C\CCCCCCCC(=O)[O-].NC1CCCCC1N.[Pt+2] [DACHPt(II)-(Ole)2, Cyclohexane-1,2-diammine Platinum (II) Dioleate]
- CR (mice completely cured / total mice tested) (L 1210 leukemia cells; [7]): 0/5
- T/C (mean survival time treated / control) (L 1210 leukemia cells; [7]): 130
- MST (mean survival time) (L 1210 leukemia cells; 25 mg/kg × 2 i.p. in lipiodol, Table I control MST 10): 13.0
- CR (mice completely cured / total mice tested) (L 1210 leukemia cells; [8]): 0/6
- T/C (mean survival time treated / control) (L 1210 leukemia cells; [8]): 170
- MST (mean survival time) (L 1210 leukemia cells; 126 mg/kg × 2 i.p. in lipiodol, Table I control MST 10): 17.0
- CR (mice completely cured / total mice tested) (L 1210 leukemia cells; [9]): 2/7
- T/C (mean survival time treated / control) (L 1210 leukemia cells; [9]): Toxic

SMILES: CCCCCCCCCCCCCC(=O)[O][Pt][O]C(=O)CCCCCCCCCCCCC.NC1CCCCC1N [DACHPt(II)-(Myr)2]
- T/C (mean survival time treated / control) (L 1210 leukemia cells; 33 mg/kg × 2 i.p. in lipiodol, Table I): 150
- MST (mean survival time) (L 1210 leukemia cells; 33 mg/kg × 2 i.p. in lipiodol, Table I control MST 10): 15.0
- T/C (mean survival time treated / control) (L 1210 leukemia cells; 833 mg/kg, administered only one time, i.p. in lipiodol, Table I): Toxic
- MST (mean survival time) (L 1210 leukemia cells; 833 mg/kg, administered only one time, i.p. in lipiodol, Table I control MST 10): 8.0*^1

SMILES: CCCCCCCCCCCCCCCCCCCCCCCC(=O)[O][Pt][O]C(=O)CCCCCCCCCCCCCCCCCCCCCCC.NC1CCCCC1N [DACHPt(II)-(Lig)2]
- T/C (mean survival time treated / control) (L 1210 leukemia cells; 50 mg/kg × 2 i.p. in lipiodol, Table I): 150
- MST (mean survival time) (L 1210 leukemia cells; 50 mg/kg × 2 i.p. in lipiodol, Table I control MST 10): 10
- T/C (mean survival time treated / control) (L 1210 leukemia cells; 250 mg/kg × 2 i.p. in lipiodol, Table I): 100
- MST (mean survival time) (L 1210 leukemia cells; 250 mg/kg × 2 i.p. in lipiodol, Table I control MST 10): 10
- T/C (mean survival time treated / control) (L 1210 leukemia cells; 1250 mg/kg × 2 i.p. in lipiodol, Table I): 105
- MST (mean survival time) (L 1210 leukemia cells; 1250 mg/kg × 2 i.p. in lipiodol, Table I control MST 10): 10.5
- CR (mice completely cured / total mice tested) (L 1210 leukemia cells; mouse, in vivo): 0/6

SMILES: CCCCCCCCCCCC(=O)[O][Pt][O]C(=O)CCCCCCCCCCC.NC1CCCCC1N [DACHPt(II)-(Lau)2]
- CR (mice completely cured / total mice tested) (L 1210 leukemia cells; [10]): 0/5
- T/C (mean survival time treated / control) (L 1210 leukemia cells; [10]): 141
- MST (mean survival time) (L 1210 leukemia cells; 57 mg/kg × 2 i.p. in lipiodol, Table III control MST 8.5): 12.0
- CR (mice completely cured / total mice tested) (L 1210 leukemia cells; [11]): 0/5
- T/C (mean survival time treated / control) (L 1210 leukemia cells; [11]): 165
- MST (mean survival time) (L 1210 leukemia cells; 171 mg/kg × 2 i.p. in lipiodol, Table III control MST 8.5): 14.0
- CR (mice completely cured / total mice tested) (L 1210 leukemia cells; [12]): 3/5
- T/C (mean survival time treated / control) (L 1210 leukemia cells; [12]): 471
- MST (mean survival time) (L 1210 leukemia cells; 855 mg/kg × 2 i.p. in lipiodol, Table III control MST 8.5): 40.0

SMILES: NC1CCCCC1N.[Cl][Pt][Cl] (stereo not drawn) [DACHP, Dichloro cyclohexane-1,2-diammine platinum (II), reference compound]
- T/C (mean survival time treated / control) (L 1210 leukemia cells; 22 mg/kg × 2 i.p., dispersion in lipiodol, oleic acid moiety two times stoichiometric amount, Table III): Toxic
- MST (mean survival time) (L 1210 leukemia cells; 22 mg/kg × 2 i.p., dispersion in lipiodol, oleic acid moiety two times stoichiometric amount, Table III control MST 8.5): 7.0
- T/C (mean survival time treated / control) (L 1210 leukemia cells; 110 mg/kg × 2 i.p., dispersion in lipiodol, oleic acid moiety two times stoichiometric amount, Table III): Toxic
- MST (mean survival time) (L 1210 leukemia cells; 110 mg/kg × 2 i.p., dispersion in lipiodol, oleic acid moiety two times stoichiometric amount, Table III control MST 8.5): 4.0
- toxicity when administered in a high dose (L 1210 leukemia cells; high dose, L1210-CDF1 mice, i.p. in lipiodol): high toxicity
- complete recovery at rather low dose (L 1210 leukemia cells; [3]): complete recovery is not observed
